Reference: PMC9794833, “Ligand recognition and activation of neuromedin U receptor 2” (Nature Communications, 2022)
“And” between values parts separate entries of the source, which are not always exact repeats. Identical values can stand only once. Like-named read-outs stand apart in the source and are kept apart here. Where no end group is shown, it is not given here.

What was measured:
Type in all cases: cell-based
[1] = molecular target: T1, NMU2 E102A (Homo sapiens, UniProt Q9GZQ4, E102A); assay: TRUPATH assay, NMU2 mutant E102A
T1 construct: HA signal peptide (N); expressed in transfected cells; host or cells: HEK 293F
Description: (§1) The plasmids of Gαi1, Gβ3, and Gγ9 used for the TRUPATH assay were purchased from Addgene (TRUPATH Kit, #1000000163). NMU2 constructs of WT and mutants were constructed into a PTT5 vector (Invitrogen) with an N-terminal HA signal peptide followed by a Flag tag. HEK 293F cells were transiently transfected with WT or mutants of NMU2, Gαi1, Gβ3, and Gγ9 at an […] ratio of 4:1:1:1 with a total of 3500 ng plasmid DNA using a transfection reagent (PEI MAX 2000, Polysciences) and cultivated at 37 °C with 5 % CO2. Cells were collected after 48-h transfection. The expression level of the receptor was measured by incubating 10 μl cells with 15 μl TBS buffer supplemented with 4% bovine serum albumin, 20% (v/v) viability staining solution7-AAD (Invitrogen, Cat#00-6993-50), and ANTI-FLAG M2-FITC antibody (Sigma, F4049; 1:100 diluted by TBS) at 4 °C for 20 min. After incubation, 175 μl TBS buffer was added, and the fluorescence signal on the cell surface was detected by an FCM (flow cytometry) reader (Millipore). […] After a 5 min equilibration time in the darkness, plates were then read in a Synerg^TM H1 microplate reader (BioTek) with excitation at 395 nm and emission at 410 and 515 nm by serially three times. Then, 30 μl of 3.3× agonists were added into the wells with a gradient final concentration from 10^−4–10^−13 M. Plates were read immediately again by serially five times. […]

[2] = molecular target: T2, NMU2 E105A (Homo sapiens, UniProt Q9GZQ4, E105A); assay: TRUPATH assay, NMU2 mutant E105A
T2 construct: HA signal peptide (N); expressed in transfected cells; host or cells: HEK 293F
Description: (§2) The plasmids of Gαi1, Gβ3, and Gγ9 used for the TRUPATH assay were purchased from Addgene (TRUPATH Kit, #1000000163). NMU2 constructs of WT and mutants were constructed into a PTT5 vector (Invitrogen) with an N-terminal HA signal peptide followed by a Flag tag. HEK 293F cells were transiently transfected with WT or mutants of NMU2, Gαi1, Gβ3, and Gγ9 at an […] ratio of 4:1:1:1 with a total of 3500 ng plasmid DNA using a transfection reagent (PEI MAX 2000, Polysciences) and cultivated at 37 °C with 5 % CO2. Cells were collected after 48-h transfection. The expression level of the receptor was measured by incubating 10 μl cells with 15 μl TBS buffer supplemented with 4% bovine serum albumin, 20% (v/v) viability staining solution7-AAD (Invitrogen, Cat#00-6993-50), and ANTI-FLAG M2-FITC antibody (Sigma, F4049; 1:100 diluted by TBS) at 4 °C for 20 min. After incubation, 175 μl TBS buffer was added, and the fluorescence signal on the cell surface was detected by an FCM (flow cytometry) reader (Millipore). The cells were diluted with 1× HBSS (Hank’s balanced salt solution) balanced buffer supplemented with 25 mM HEPES, pH 7.4, and seeded onto the 96-well opaque cell culture plates (Beyotime) at a density of 18,000 cells per well by 60 μl. Freshly prepared 50 μM coelenterazine 400a (Nanolight Technologies) was added into the well by 10 μl. After a 5 min equilibration time in the darkness, plates were then read in a Synerg^TM H1 microplate reader (BioTek) with excitation at 395 nm and emission at 410 and 515 nm by serially three times. Then, 30 μl of 3.3× agonists were added into the wells with a gradient final concentration from 10^−4–10^−13 M. Plates were read immediately again by serially five times. Data were processed and analyzed following the method in the literature by using GraphPad Prism 8.0.

[3] = molecular target: T3, NMU2 N109A (Homo sapiens, UniProt Q9GZQ4, N109A); assay: TRUPATH assay, NMU2 mutant N109A
T3 construct: HA signal peptide (N); expressed in transfected cells; host or cells: HEK 293F
Description: as §2

[4] = molecular target: T4, NMU2 E127A (Homo sapiens, UniProt Q9GZQ4, E127A); assay: TRUPATH assay, NMU2 mutant E127A
T4 construct: HA signal peptide (N); expressed in transfected cells; host or cells: HEK 293F
Description: as §1

[5] = molecular target: T5, NMU2 W281A (Homo sapiens, UniProt Q9GZQ4, W281A); assay: TRUPATH assay, NMU2 mutant W281A
T5 construct: HA signal peptide (N); expressed in transfected cells; host or cells: HEK 293F
Description: as §2

[6] = molecular target: T6, NMU2 F284A (Homo sapiens, UniProt Q9GZQ4, F284A); assay: TRUPATH assay, NMU2 mutant F284A
T6 construct: HA signal peptide (N); expressed in transfected cells; host or cells: HEK 293F
Description: as §2

[7] = molecular target: T7, NMU2 A302H (Homo sapiens, UniProt Q9GZQ4, A302H); assay: TRUPATH assay, NMU2 mutant A302H
T7 construct: HA signal peptide (N); expressed in transfected cells; host or cells: HEK 293F
Description: as §2

[8] = molecular target: T8, NMU2 N306Q (Homo sapiens, UniProt Q9GZQ4, N306Q); assay: TRUPATH assay, NMU2 mutant N306Q
T8 construct: HA signal peptide (N); expressed in transfected cells; host or cells: HEK 293F
Description: as §2

[9] = molecular target: T9, NMU2 (Homo sapiens, UniProt Q9GZQ4); assay: IP accumulation assay (IP-One Gq kit), WT NMU2; settings: IP accumulation
T9 construct: HA signal peptide (N); expressed in transfected cells; host or cells: HEK 293F
Description: (§3) NMU2 constructs of WT and mutants were constructed into PTT5 vector (Invitrogen), as mentioned above. HEK 293F cells were transiently transfected with WT or mutants with total of 2000 ng plasmid DNA using transfection reagent (PEI MAX 2000, Polysciences) and cultivated at 37 °C with 5% CO2. Cells were collected after 48-h transfection. IP accumulation was tested by IP-One Gq assay kit (Cisbio Bioassays, 62IPAPEJ) following the instruction manual. In general, cells were resuspended with 1× HBSS buffer containing 20 mM LiCl (stimulation buffer) and seeded into the white 384-well microplates (Proxi Plate^TM-384 Plus, PerkinElmer) with a density of 20,000 per well. Cells were preincubated with 10^−5 M R-PSOP (provided by Boehringer Ingelheim company, Germany) and gradient concentration from 10^−4 to 10^−11 M of NMU-25 or gradient concentration 10^−4 to 10^−11 M of NMU-25 alone in stimulation buffer at 37 °C for 90 min. The cryptate-labeled anti-IP1 monoclonal antibody and d2-labeled IP1 were diluted with lysis & detection buffer (1:20) and added to each well by 3 μl, respectively. The plates were incubated at room temperature for 60 minutes and then read in a Synerg^TM H1 microplate reader (BioTek) with excitation at 330 nm and emission at 620 and 665 nm. The IP1 production was calculated by a standard dose–response curve and analyzed by GraphPad Prism 8.0.

[10] = molecular target: T10, NMU2 F177C (Homo sapiens, UniProt Q9GZQ4, F177C); assay: IP accumulation assay, NMU2 mutant F177C; settings: IP accumulation
T10 construct: HA signal peptide (N); expressed in transfected cells; host or cells: HEK 293F, transient transfection, PTT5 vector
Description: as §3

[11] = read-out: pEC50 mean±SEM (converted)
[12] = read-out: pEC50±SEM, NmU-25 alone (converted)

T8 sequence (Q9GZQ4 whole entry N306Q): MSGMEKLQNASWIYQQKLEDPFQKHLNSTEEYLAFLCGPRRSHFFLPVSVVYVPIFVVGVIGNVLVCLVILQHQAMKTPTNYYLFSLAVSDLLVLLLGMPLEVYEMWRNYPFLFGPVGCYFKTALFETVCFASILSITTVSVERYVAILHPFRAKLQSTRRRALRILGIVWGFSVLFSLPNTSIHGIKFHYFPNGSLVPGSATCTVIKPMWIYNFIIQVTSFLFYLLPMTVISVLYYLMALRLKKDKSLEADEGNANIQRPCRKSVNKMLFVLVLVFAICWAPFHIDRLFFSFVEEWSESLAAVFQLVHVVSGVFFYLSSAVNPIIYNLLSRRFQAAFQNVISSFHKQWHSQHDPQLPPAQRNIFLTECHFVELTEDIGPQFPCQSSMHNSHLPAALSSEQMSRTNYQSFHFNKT
T4 sequence (Q9GZQ4 whole entry E127A): as the sequence (Q9GZQ4 whole entry N306Q) above, with E127A, Q306N counted along it
T5 sequence (Q9GZQ4 whole entry W281A): as the sequence (Q9GZQ4 whole entry N306Q) above, with W281A, Q306N counted along it
T2 sequence (Q9GZQ4 whole entry E105A): as the sequence (Q9GZQ4 whole entry N306Q) above, with E105A, Q306N counted along it
T7 sequence (Q9GZQ4 whole entry A302H): as the sequence (Q9GZQ4 whole entry N306Q) above, with A302H, Q306N counted along it
T3 sequence (Q9GZQ4 whole entry N109A): as the sequence (Q9GZQ4 whole entry N306Q) above, with N109A, Q306N counted along it
T6 sequence (Q9GZQ4 whole entry F284A): as the sequence (Q9GZQ4 whole entry N306Q) above, with F284A, Q306N counted along it
T9 sequence (Q9GZQ4 whole entry): as the sequence (Q9GZQ4 whole entry N306Q) above, with Q306N counted along it
T10 sequence (Q9GZQ4 whole entry F177C): as the sequence (Q9GZQ4 whole entry N306Q) above, with F177C, Q306N counted along it
T1 sequence (Q9GZQ4 whole entry E102A): as the sequence (Q9GZQ4 whole entry N306Q) above, with E102A, Q306N counted along it

Substance: FRVDEEFQSPFASQSRGYFLFRPRN-NH2 [NmU-25]
- potency (in words) [1]: complete loss of potency
- Span (window between Emax and minimal agonist response) ([2]; E105A): 65±13 % of WT
- Emax ([2]; E105A vs WT, TRUPATH, read-out: decrease of Emax): 50%
- G protein activation (TRUPATH), dose-response point ([2]; E105A, Log [agonist] M -5): 55.6494 and 84.0025 and 53.5618 and 51.5031
- EC50 ([2]; E105A, earlier manuscript version quoted in peer review file, read-out: EC50): 1.85 µM
- reduction of agonist potency ([2]; E105A, earlier manuscript version, peer review file): about 50 fold
- ΔpEC50 (from WT) ([2]; E105A, individual experiments): -1.22 and -1.57 and -1.279 and -1.924
- EC50 ([2]; E105A, read-out: EC50): 2.48 µM
- EC50 ([2]; E105A, read-out: pEC50 mean±SEM (converted)): 2.51 µM
- EC50 ratio EC50(mutant)/EC50(WT) [3]: 9
- Span (window between Emax and minimal agonist response) [3]: 138±11 % of WT
- G protein activation (TRUPATH), dose-response point ([3]; Log [agonist] M -4): 126.259
- G protein activation (TRUPATH), dose-response point ([3]; Log [agonist] M -5): 106.487 and 123.773 and 113.723
- G protein activation (TRUPATH), dose-response point ([3]; Log [agonist] M -6): 98.1363 and 71.1117 and 54.8765
- ΔpEC50 (from WT) ([3]; individual experiments): -1.459 and -0.6318 and -0.9885
- EC50 ([3]; read-out: EC50): 0.298 µM
- EC50 [3, 11]: 0.295 µM
- G protein activation (TRUPATH), dose-response point ([4]; Log [agonist] M -4): 45.81 and 24.8732
- potency (in words) ([4]; TRUPATH): complete loss of potency
- EC50 ratio EC50(mutant)/EC50(WT) [5]: 24
- Span (window between Emax and minimal agonist response) [5]: 55±9 % of WT
- G protein activation (TRUPATH), dose-response point ([5]; Log [agonist] M -4): 31.1201 and 49.629
- ΔpEC50 (from WT) ([5]; individual experiments): -1.673 and -1.545 and -1.465
- EC50 ([5]; read-out: EC50): 0.814 µM
- EC50 [5, 11]: 0.813 µM
- NmU-25–induced G protein activation of NMU2 ([6]; Log [NmU-25] M -4, single replicates): 51.7867 and 36.0609 and 47.0977
- NmU-25–induced G protein activation of NMU2 ([6]; Log [NmU-25] M -5, single replicates): 36.8137 and 51.0666 and -1.433 and 5.137 and 15.0834
- NmU-25–induced G protein activation of NMU2 ([6]; Log [NmU-25] M -6, single replicates): -9.689 and 18.4963 and 20.7431 and 10.1867 and 6.446
- NmU-25–induced G protein activation of NMU2 ([6]; Log [NmU-25] M -7, single replicates): 16.596 and 4.555 and 25.4325 and 3.668 and -4.14
- NmU-25–induced G protein activation of NMU2 ([6]; Log [NmU-25] M -8, single replicates): 37.8124 and 33.3355 and -35.58 and 1.433 and 3.8556
- NmU-25–induced G protein activation of NMU2 ([6]; Log [NmU-25] M -9, single replicates): 18.5281 and 39.1515 and -3.291 and -33.2453 and 1.059
- NmU-25–induced G protein activation of NMU2 ([6]; Log [NmU-25] M -10, single replicates): -33.6452 and 11.984 and -41.6359 and -19.8948 and -2.9799
- NmU-25–induced G protein activation of NMU2 ([6]; Log [NmU-25] M -11, single replicates): -12.488 and 31.0606 and -18.1089 and -17.8891 and -12.403
- G protein activation (TRUPATH), dose-response point ([6]; Log [agonist] M -4): 51.7867 and 36.0609 and 47.0977
- EC50 ratio EC50(mutant)/EC50(WT) [7]: 5
- Span (window between Emax and minimal agonist response) [7]: 97±11 % of WT
- G protein activation (TRUPATH), dose-response point ([7]; Log [agonist] M -4): 97.2233 and 94.5294
- G protein activation (TRUPATH), dose-response point ([7]; Log [agonist] M -6): 58.8982 and 69.5076 and 54.0633
- ΔpEC50 (from WT) ([7]; individual experiments): -0.7587 and -0.754 and -0.956
- EC50 ([7]; read-out: EC50): 0.162 µM
- EC50 [7, 11]: 0.162 µM
- EC50 ratio EC50(mutant)/EC50(WT) [8]: 14
- Span (window between Emax and minimal agonist response) [8]: 101±10 % of WT
- G protein activation (TRUPATH), dose-response point ([8]; Log [agonist] M -4): 89.9582 and 52.9953 and 88.5352
- G protein activation (TRUPATH), dose-response point ([8]; Log [agonist] M -5): 95.8006 and 91.3095 and 87.6434
- ΔpEC50 (from WT) ([8]; individual experiments): -1.093 and -0.9304 and -1.223
- EC50 ([8]; read-out: EC50): 0.466 µM
- EC50 [8, 11]: 0.468 µM
- EC50 ([9]; read-out: EC50, NmU-25 alone): 0.017 µM
- EC50 [9, 12]: 0.0166 µM
- EC50 ([10]; read-out: EC50, NmU-25 alone): 0.007 µM
- EC50 [10, 12]: 0.00708 µM
